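Dose response: 5 concentrations. Exposure: 48 h. Format: 96-well plates. Endpoint: linear interpolation; highest concentration if not reached. TGI marks complete inhibition of growth.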
Columns and labels:
Experiment in all cases: growth of human tumour cells (NCI), 48 h
SF-295 CNS = test system: SF-295 CNS
A498 renal = test system: A498 renal
TK-10 renal = test system: TK-10 renal
LOX IMVI melanoma = test system: LOX IMVI melanoma
UACC-257 melanoma = test system: UACC-257 melanoma
SF-539 CNS = test system: SF-539 CNS
SK-MEL-2 melanoma = test system: SK-MEL-2 melanoma
SR leukemia = test system: SR leukemia
K-562 leukemia = test system: K-562 leukemia
SW-620 colon = test system: SW-620 colon
CCRF-CEM leukemia = test system: CCRF-CEM leukemia
HL-60(TB) leukemia = test system: HL-60(TB) leukemia
ACHN renal = test system: ACHN renal
786-0 renal = test system: 786-0 renal
SF-268 CNS = test system: SF-268 CNS
UO-31 renal = test system: UO-31 renal
HCC-2998 colon = test system: HCC-2998 colon
T-47D breast = test system: T-47D breast
PC-3 prostate = test system: PC-3 prostate
HS 578T breast = test system: HS 578T breast

Row | SMILES | TGI (SF-295 CNS) | TGI (A498 renal) | TGI (TK-10 renal) | TGI (LOX IMVI melanoma) | TGI (UACC-257 melanoma) | TGI (SF-539 CNS) | TGI (SK-MEL-2 melanoma) | TGI (SR leukemia) | TGI (K-562 leukemia) | TGI (SW-620 colon) | TGI (CCRF-CEM leukemia) | TGI (HL-60(TB) leukemia) | TGI (ACHN renal) | TGI (786-0 renal) | TGI (SF-268 CNS) | TGI (UO-31 renal) | TGI (HCC-2998 colon) | TGI (T-47D breast) | TGI (PC-3 prostate) | TGI (HS 578T breast)
1 | Cn1cnc(CCc2ccccc2)n1 | > 100 µM | > 100 µM | > 100 µM | > 100 µM | > 100 µM | > 100 µM | > 100 µM | > 100 µM | > 100 µM | > 100 µM | > 100 µM | > 100 µM | > 100 µM | > 100 µM | > 100 µM | > 100 µM |  |  |  | 
2 | CC(C)[C@H]1CO[C@]2(C)[C@@H]3CN(Cc4ccccc4)C[C@@H]3C(=O)N12 | > 100 µM |  | > 100 µM |  | > 100 µM | > 100 µM | > 100 µM | > 100 µM | > 100 µM | > 100 µM | > 100 µM | > 100 µM | > 100 µM | > 100 µM | > 100 µM | > 100 µM |  |  |  | 
3 | Cc1csc(=S)n1OC(=O)NC1CCCCC1 | > 100 µM | > 100 µM | > 100 µM | > 100 µM | > 100 µM | > 100 µM | > 100 µM | 47.3 µM | > 100 µM | > 100 µM | > 28.2 µM | 56.5 µM | > 100 µM | > 50 µM | > 100 µM | > 100 µM | > 100 µM |  |  | 
4 | NC1CC(=O)c2sc(I)cc21 (stereo not drawn) |  | > 100 µM | > 100 µM |  | > 100 µM | > 100 µM | > 100 µM | > 100 µM | > 100 µM | > 100 µM | > 100 µM | 78.7 µM | > 100 µM | > 100 µM | > 100 µM | > 100 µM | > 100 µM | > 100 µM | > 100 µM | 
5 | CCOP(=O)(OCC)C1CC(O)C(=O)N1 (stereo not drawn) | > 100 µM | > 100 µM | > 100 µM | > 100 µM | > 100 µM |  | > 100 µM | > 100 µM | > 100 µM | > 100 µM | > 100 µM |  | > 100 µM | > 100 µM | > 100 µM | > 100 µM |  |  | > 100 µM | > 100 µM
6 | O=C1C(Br)=CC2(C=C1Br)CCNC1=C2C(=O)c2ccccc2C1=O | 33.2 µM |  | 83.4 µM | 17.2 µM | 53.3 µM |  | 34.7 µM |  | 48.4 µM | 87.8 µM | 19 µM | 13.3 µM | 27.9 µM | 29.5 µM | 63.3 µM |  |  |  |  | 
7 | CC(=O)OCOC(=O)CN(CC(=O)OCOC(C)=O)Cc1cc2c(cc1OC(C)=O)Oc1cc(OC(C)=O)c(CN(CC(=O)OCOC(C)=O)CC(=O)OCOC(C)=O)cc1C21OC(=O)c2ccccc21 | 11.1 µM | 2.61 µM | 3 µM | 1.29 µM | 1.27 µM | 1.05 µM | 2.33 µM |  | 0.401 µM | 3.64 µM | 0.374 µM | 0.0289 µM | 4.02 µM | 1.41 µM | 4.22 µM | 6.38 µM |  | 4.21 µM | 4.82 µM | 1.59 µM
8 | COc1cc(OC)c2c(c1)C(=O)C(CC(C)O)=CC2=O (stereo not drawn) | 27.4 µM | 31.7 µM | 34.1 µM | 19 µM | 30.7 µM | 32.5 µM | 36.2 µM | 7.44 µM | 78.8 µM | 31.7 µM | 33.5 µM | 21.8 µM | 30.2 µM | 29.9 µM | 33 µM | 29.9 µM | 43.7 µM |  |  | 
9 | CC(=O)OCC1OC(OC2C(CSC3OC(COC(C)=O)C(OC(C)=O)C(OC(C)=O)C3OC(C)=O)OC(OC(C)=O)C(OC(C)=O)C2OC(C)=O)C(OC(C)=O)C(OC(C)=O)C1OC(C)=O (stereo not drawn) | > 100 µM |  | > 100 µM | > 100 µM |  | > 100 µM |  | > 100 µM | > 100 µM | > 100 µM | > 100 µM |  | > 100 µM | > 100 µM | > 100 µM | > 100 µM | > 100 µM |  |  | 
10 | O=[N+]([O-])c1ccc(-c2csc3nc(-c4ccccc4)nn23)cc1 | > 100 µM | > 100 µM | > 100 µM | > 100 µM | > 100 µM |  | > 100 µM | > 100 µM | > 100 µM | > 100 µM | > 100 µM | > 100 µM | > 100 µM | > 100 µM | > 100 µM | > 100 µM | > 100 µM |  | > 100 µM | > 100 µM
11 | COCCN(C(C)=O)C1CCC2(SCCS2)c2[nH]c3ccccc3c21 (stereo not drawn) | > 100 µM | > 100 µM | > 100 µM | > 100 µM | > 100 µM | > 100 µM |  | > 100 µM | > 100 µM | > 100 µM | > 100 µM | > 100 µM | > 100 µM | > 100 µM | > 100 µM |  | > 100 µM |  | > 100 µM | > 100 µM
12 | CC(C)(Br)C(Br)CCC(C)(Br)C(Br)CO (stereo not drawn) | > 10 µM | > 10 µM |  |  | > 10 µM | > 10 µM |  |  | > 10 µM | > 10 µM | > 10 µM |  | > 10 µM | > 10 µM | > 10 µM | > 10 µM | > 10 µM | > 10 µM | > 10 µM | > 10 µM
13 | O=C(c1cccc2ccccc12)C1(Br)S(=O)(=O)OCCOS1(=O)=O | > 100 µM |  | > 100 µM | > 100 µM | > 100 µM |  | > 100 µM | > 100 µM |  |  |  | > 100 µM | > 100 µM | > 100 µM |  | > 100 µM | > 100 µM |  |  | 
14 | COc1cc(Cn2c3ccccc3c3cc(C)c4c(c32)C=CC(C)(CCC=C(C)C)O4)cc2c1[nH]c1ccccc12 (stereo not drawn) | > 100 µM | > 100 µM | > 100 µM | > 100 µM | > 100 µM | > 100 µM | > 100 µM | > 100 µM | > 100 µM | > 100 µM | > 100 µM | > 100 µM | > 100 µM | > 100 µM | > 100 µM | > 100 µM | > 100 µM |  |  | 

Source: PubChem BioAssay (NCI)
